This is an account of results in paper PMC10906247, “From Functional Fatty Acids to Potent and Selective Natural-Product-Inspired Mimetics via Conformational Profiling” (ACS Central Science, 2024).

In data set [1] the target is T1, GPR120 (Homo sapiens, UniProt Q5NUL3).
T1 sequence (Q5NUL3 1-361): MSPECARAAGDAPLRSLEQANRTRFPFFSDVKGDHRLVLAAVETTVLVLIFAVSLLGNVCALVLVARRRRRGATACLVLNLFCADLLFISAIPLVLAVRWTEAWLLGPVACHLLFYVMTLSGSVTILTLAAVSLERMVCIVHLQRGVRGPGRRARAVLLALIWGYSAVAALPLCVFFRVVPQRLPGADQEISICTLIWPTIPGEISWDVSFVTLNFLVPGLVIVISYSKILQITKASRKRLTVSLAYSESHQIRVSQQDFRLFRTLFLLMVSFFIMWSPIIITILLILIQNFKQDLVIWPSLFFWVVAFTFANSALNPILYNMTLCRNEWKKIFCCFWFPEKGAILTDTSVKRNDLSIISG
In words: PathHunter β-arrestin assay (Eurofins Discovery), GPR120. It counts as cell-based. Particulars: for GPR120 max. efficacy: oleic acid = 100. Here is the method: (§1) With these compounds in hand, attention was directed at evaluating their properties as ligands to GPR40, GPR120,[24] and TLX. Initial profiling experiments were conducted targeting the GPCR targets at a single concentration (15 μM) in a commercially available β-arrestin assay.
(§2) Functional assays at GPR40 and GPR120 were conducted by Eurofins Discovery services using their PathHunter® b-Arrestin assay that monitors the activation of a GPCR in a homogenous, non-imaging assay format using a technology developed by DiscoverX called Enzyme Fragment Complementation (EFC) with b-galactosidase (b-Gal) as the functional reporter. b-Arrestin GPCR cell lines built on the principles of EFC are engineered to co-express the ProLinkTM (PK) tagged GPCR and the Enzyme Acceptor (EA) tagged b-Arrestin. Activation of the GPCR-PK induces b-Arrestin-EA recruitment, forcing complementation of the two b-galactosidase enzyme fragments (EA and PK). The resulting functional enzyme hydrolyzes substrate to generate chemiluminescent […]
(§3) Additional information can be found at: www.eurofinsdiscovery.com/solution/b-arrestin Below are dose-response curves generated from Eurofins Discovery services for activity of ligands depicted in Figure 6B at GPR40 (FFAR1) and GPR120. […]

The target of data set [2] is T2, TLX ligand binding domain (Homo sapiens, UniProt Q9Y466).
T2 construct: purchased NovAliX SAS, Strasbourg, France
In words: TLX ligand sensing assay (AlphaScreen, RIP140 NR box peptide recruitment). It counts as biochemical.

A short description of data set [3]: Metabolic stability / intrinsic clearance in cryopreserved human hepatocytes. Here is the method: To gain insight into potential metabolic issues, a preliminary assessment of 1-E and 3-C in a metabolic stability assay utilizing human hepatocytes was conducted.
7.1. ADME-Tox: In Vitro Metabolism
Intrinsic clearance (cr yopreserved hepatocytes, human)
Note: Unit of Clint is µ L/min/mg for microsomes, S9 and UGT assa ys; µL/min/pmol for CYP assays; µ L/min/Million cells for hepatocyte assays […]
8.1. Experimental Conditions
8.1.1. ADME-Tox: In Vitro Metabolism
8.2. Analysis and expression of results
8.2.1. ADME-Tox: In Vitro Metabolism
Intrinsic Clearance (microsomes, S9, cryopreserved hepatocytes, reco mbinant CYP, recombinant UGT) Metabolic stability, expressed as percent of the parent compound remaining , was calculated by comparing the peak area of the compound at the time point relative to that at time -0. The ha lf-life (T1/2) was estimated from the slope of the initial linear range of the logarithmic curve of compound remaining (%) vs. time, assu ming the first -order kinetics. The apparent intrinsic cleara nce (CLint, in µL/min/pmol, µL/min/mg or µL/min/Mcell ) was calculated according to the following formula: […]
T1/2*(mg protein/µL or million cells/µL or pmol CYP iso zyme/µL)

The target of data set [4] is GPR40 (FFAR1) (Homo sapiens, UniProt O14842). Description: PathHunter β-arrestin assay (Eurofins Discovery), GPR40. The conditions noted are these: for GPR40 max. efficacy: oleic acid = 100. The class given is cell-based. As to the method:
as §1, §2, §3

The test system of data set [5] is GPR40. Particulars: read-out: GPR40 EC50 historical, cited from earlier work.
The target in data set [6] is T1, GPR120. The conditions noted are these: read-out: GPR120 EC50 historical; oleic acid; cited from earlier work.
For data set [7], the system named is MIN6 cells. Also on record: method as in PMID 12629551, PMID 12496284. Particulars: cited from earlier work.
The mark [8] stands for this setting: ALPHA normalized, supplement, read-out: TLX EC50 (dose-response curves).
[9] abbreviates: dose-response, β-arrestin assay, read-out: GPR40 EC50 measured.

“And” between values parts separate entries of the source, which are not always exact repeats. Equal values may be shown once. Read-outs that look alike come from different tables or passages of the source.

T2 sequence (Q9Y466 155-383 limits assumed): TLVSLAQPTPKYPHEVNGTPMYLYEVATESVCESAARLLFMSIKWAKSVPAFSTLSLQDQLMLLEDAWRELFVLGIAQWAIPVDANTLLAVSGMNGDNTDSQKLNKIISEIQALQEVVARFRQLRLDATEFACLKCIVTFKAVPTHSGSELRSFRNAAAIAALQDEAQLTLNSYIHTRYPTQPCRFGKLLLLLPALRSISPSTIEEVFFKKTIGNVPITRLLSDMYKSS
Chain of GPR40 (FFAR1) (O14842 whole entry): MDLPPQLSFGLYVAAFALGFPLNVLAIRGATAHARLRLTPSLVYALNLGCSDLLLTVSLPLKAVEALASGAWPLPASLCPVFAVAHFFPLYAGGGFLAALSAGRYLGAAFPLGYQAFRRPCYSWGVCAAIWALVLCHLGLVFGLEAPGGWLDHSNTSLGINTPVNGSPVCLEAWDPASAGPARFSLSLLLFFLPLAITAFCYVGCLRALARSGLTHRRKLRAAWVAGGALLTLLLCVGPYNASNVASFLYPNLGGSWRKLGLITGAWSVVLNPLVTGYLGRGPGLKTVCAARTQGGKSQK

On to `CCCCCCCCC[C@H](C)/C=C(/C)C/C(C)=C/[C@H](C)CC(=O)O` [1-E], for which the half-maximal effective concentration (EC50) (as a rule, the midpoint of the concentration-response curve) was more than 47 µM in data set [1] (dose-response, β-arrestin assay, read-out: GPR120 EC50 measured); 1.68 µM in data set [2] (setting [8]); 2.6 µM in data set [4] (setting [9]). This compound also registered a GPR120 max. efficacy in data set [1] (maximal efficacy measured at 100 μM) of 32%. Further, the “Half-life, single replicates (1st, 2nd, 3rd)” value in data set [3] (human hepatocytes, 1.0E-06 M, listed as GCM/LEM 1-E) was 3.445 h and 2.168 h and 4.453 h. In addition, in data set [3] (human, cryopreserved human hepatocytes), the hepatocyte CLint (commonly the capacity of the preparation to metabolise the compound, expressed as a volume cleared per time) at 1 µM was 5.4 µL/min/1e6 cells. Further, the half-life (in general, the time needed for the level to fall by half in the phase considered) at 1 µM in data set [3] (human, cryopreserved human hepatocytes, Half-life (mean), human hepatocytes, 1.0E-06 M) is 3.35 h. Further, the “% Compound Remaining, mean” value in data set [3] (incubation 30 minutes, 1.0E-06 M) was found to be 96 % remaining; in data set [3] (incubation 60 minutes, 1.0E-06 M), 98 % remaining; in data set [3] (incubation 90 minutes, 1.0E-06 M), 85 % remaining; in data set [3] (incubation 120 minutes, 1.0E-06 M), 61 % remaining. Besides, the “% Compound Remaining, single replicates (1st, 2nd, 3rd)” value in data set [3] (incubation 30 minutes, 1.0E-06 M, listed as GCM/LEM 1-E) is 99.4 % remaining and 103.0 % remaining and 86.6 % remaining; in data set [3] (incubation 60 minutes, 1.0E-06 M, listed as GCM/LEM 1-E), 83.9 % remaining and 103.8 % remaining and 106.9 % remaining; in data set [3] (incubation 90 minutes, 1.0E-06 M, listed as GCM/LEM 1-E), 79.1 % remaining and 80.4 % remaining and 96.1 % remaining; in data set [3] (incubation 120 minutes, 1.0E-06 M, listed as GCM/LEM 1-E), 67.8 % remaining and 50.9 % remaining and 64.3 % remaining. Besides, the “GPR40 potency relative to oleic acid” value in data set [4] (EC50 ratio vs control oleic acid) came out at 14 times. In addition, the GPR40 max. efficacy in data set [4] (dose-response) is recorded as 75%.

With `O=C(O)CCc1ccc(NCc2cccc(Oc3ccccc3)c2)cc1` [GW9508, reference compound], in data set [1] (dose-response), the GPR120 max. efficacy is on record as 87%. The concentration for a half-maximal effect (EC50) in data set [5] (GW9508) is 0.047 µM; in data set [4] (setting [9]), 1 µM; in data set [4] (three independent assays behind the average, read-out: GPR40 EC50, independent assays), 1.5 µM and 0.98 µM and 0.7 µM. The compound further gave a GPR40 max. efficacy in data set [4] (dose-response) of 229%.

For `CCCCCCCC/C=C\CCCCCCCC(=O)O` [oleic acid, reference compound], the EC50 in data set [1] (GPR120 EC50 measured) is 15 µM; in data set [2], 3.55 µM; in data set [2] (setting [8]) it was 3.55 µM; in data set [2] (coactivator recruitment, read-out: TLX EC50) it was 3.6 µM; in data set [6], 12 µM; in data set [5] (oleic acid, stimulatory activity on CHO-mGPR40 cells), 2 µM. In addition, in data set [4] (GPR40 EC50 measured), the EC50 came to 37 µM. Moreover, the GPR120 max. efficacy in data set [1] (dose-response) was found to be 100%. Further, in data set [2], the “enhanced recruitment of a coactivator protein fragment” value was 8.4 fold. Besides, the TLX max. efficacy in data set [2] (oleic acid = 100) was 100%. The “concentration inducing insulin secretion” value in data set [7] was not below 1 µM. Besides, the GPR40 max. efficacy in data set [4] (dose-response) is listed as 100%. Besides, the “right shift of GPR40 result relative to reported historical activity” value in data set [4] (measured vs historical EC50) was approximately 20 fold.
